We go through 15 compounds from patent publication US6759420B1, “Arylalkanoyl derivatives, processes for their preparation, their use and pharmaceutical compositions containing them” (Aventis Pharma Deutschland GmbH, priority 1999, dated 2004).

The structures appear in SMILES notation. pKi: −log10 of the molar value. Structures can show the parent of a compound that is named as a salt.

A word on the pKi: it is the negative decadic logarithm of the Ki, by convention in mol/L.

factor Xa, sequence (P00742 235-488 limits assumed): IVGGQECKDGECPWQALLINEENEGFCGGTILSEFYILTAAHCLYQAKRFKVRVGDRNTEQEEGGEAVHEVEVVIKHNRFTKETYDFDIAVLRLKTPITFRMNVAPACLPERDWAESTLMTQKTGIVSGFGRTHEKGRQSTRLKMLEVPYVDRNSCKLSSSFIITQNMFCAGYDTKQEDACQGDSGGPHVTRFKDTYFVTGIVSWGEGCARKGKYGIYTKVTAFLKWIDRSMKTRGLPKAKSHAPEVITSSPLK
factor Xa, sequence (P00742 41-179 limits assumed): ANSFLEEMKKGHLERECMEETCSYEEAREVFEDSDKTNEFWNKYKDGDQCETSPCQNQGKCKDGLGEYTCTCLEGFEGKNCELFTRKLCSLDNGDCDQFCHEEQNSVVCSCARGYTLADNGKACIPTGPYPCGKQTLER

The target in this assay is factor Xa (Homo sapiens, UniProt P00742). Description: Factor Xa assay (Test 1a), chromogenic. Also on record: purchased Enzyme Research Laboratories, Inc; South Bend, Ind. The settings on record: in vitro factor Xa assay Test 1a; human factor Xa 0.5 nM, substrate S-2765 140 μM, 25° C.; Ki from IC50 corrected for substrate competition. Format: biochemical. An excerpt:
The ability of a compound of formula (I) to inhibit factor Xa, thrombin, plasmin, elastase, and trypsin may be assessed by determining the concentration of compound of formula (I) that inhibits enzyme activity by 50% (IC50). Purified enzymes are used in chromogenic assays. To determine the inhibition constant, the IC50 value is corrected for competition with substrate using the formula:
Ki=IC50×(1/{1+((substrate concentration)/substrate Km)})
where Km is the Michaelis-Menten constant. Y. -C. Chen and W. H. Prusoff, Biochem. Pharmacol. 22: […] (1973), which is incorporated herein by reference.
TBS-PEG buffer (50 mM Tris-Cl, pH 7.8, 200 mM NaCl, 0.05% (w/v) PEG-8000, 0.02% (w/v) NaN3) is used for this assay. The IC50 is determined by combining in appropriate wells of a Costar half-area microtiter plate 25 μl human factor Xa (Enzyme Research Laboratories, Inc.; South Bend, Ind.) in TBS-PEG; 40 μl 10% (v/v) DMSO in TBS-PEG (uninhibited control) or various concentrations of the compound to be tested diluted in 10% (v/v) DMSO in TBS-PEG; and substrate S-2765 (N-benzyloxycarbonyl-D-Arg-Gly-L-Arg-p-nitroanilide; Kabi Pharmacia, Inc.; Franklin Ohio) in TBS-PEG.
The assays are performed by pre-incubating the compound of formula (I) plus enzyme for 10 min, then the assay is initiated by adding substrate to obtain a final volume of 100 μl. The initial velocity of chromogenic substrate hydrolysis is measured by the change in absorbance at 405 nm using a Bio-tek Instruments kinetic plate reader (Ceres UV900HDi) at 25° C. during the linear portion of the time course (usually 1.5 min after addition of substrate). The concentration of inhibitor that causes a 50% decrease in the rate of substrate hydrolysis is predicted by linear regression after plotting the relative rates of hydrolysis (compared to the uninhibited control) versus the log of the compound of formula (I) concentration. The enzyme concentration is 0.5 nM and substrate concentration is 140 μM.
Compound `CCC(C)[C@@H](C(=O)N[C@@H](CCCNC(=N)N)C(N)=O)N(C)C(=O)C(Cc1ccc(C(=N)N)cc1)c1cccnc1` (mixture of isomers) [Example 18, 2-(S)-{[3-(4-Carbamimidoyl-phenyl)-2-(R,S)-pyridin-3-yl-propionyl]-methyl-amino}-3-methyl-pentanoic acid (1-(S)-carbamoyl-4-guanidino-butyl)-amide trifluoroacetic acid salt] gave a pKi of 6.51. On to `CCCC[C@H](NC(=O)C(Cc1ccc(C(=N)N)cc1)c1cccnc1)C(=O)N[C@@H](CCCNC(=N)N)C(N)=O` (mixture of isomers) [Example 23, 2-(S)-[3-(4-Carbamimidoyl-phenyl)-2-(R,S)-pyridin-3-yl-propionylamino]-hexanoic acid (1-(S)-carbamoyl-4-guanidino-butyl)-amide trifluoroacetic acid salt], for which the pKi was 8.55. `CN(C(=O)C(Cc1ccc(C(=N)N)cc1)c1cccnc1)[C@@H](Cc1ccccc1)C(=O)N[C@@H](CCCNC(=N)N)C(N)=O` (mixture of isomers) [Example 26, 2-(S)-(2-(S)-{[3-(4-Carbamimidoyl-phenyl)-2-(R,S)-pyridin-3-yl-propionyl]-methyl-amino}-3-phenyl-propionylamino)-5-guanidino-pentanoic acid amide trifluoroacetic acid salt] gave a pKi of 5.97.

Consider `N=C(N)NCCC[C@H](NC(=O)[C@H](Cc1ccc2ccccc2c1)NC(=O)C(Cc1ccc(C(=N)N)cc1)c1ccc2ccccc2c1)C(N)=O` (mixture of isomers) [Example 39, 2-(S)-{2-(S)-[3-(4-Carbamimidoyl-phenyl)-2-(R,S)-naphthalen-2-yl-propionyl-amino]-3-naphthalen-2-yl-propionylamino}-5-guanidino-pentanoic acid amide trifluoroacetic acid salt], for which the pKi is 5.54. Under `N=C(N)NCCC[C@H](NC(=O)[C@H](CCCN)NC(=O)C(Cc1ccc(C(=N)N)cc1)c1cccnc1)C(N)=O` (mixture of isomers) [Example 51, 2-(S)-{5-Amino-2-(S)-[3-(4-carbamimidoyl-phenyl)-2-(R,S)-pyridin-3-yl-propionylamino]-pentanoylamino}-5-guanidino-pentanoic acid amide trifluoroacetic acid salt] stands 5.41; under `N=C(N)NCCC[C@H](NC(=O)[C@H](CO)NC(=O)C(Cc1ccc(C(=N)N)cc1)c1ccccc1)C(N)=O` (mixture of isomers) [Example 57, 2-(S)-{2-(S)-[3-(4-Carbamimidoyl-phenyl)-2-(R,S)-phenyl-propionylamino]-3-hydroxy-propionylamino}-5-guanidino-pentanoic acid amide trifluoroacetic acid salt], 5.71; under `N=C(N)NCCC[C@H](NC(=O)[C@@H](NC(=O)C(Cc1ccc(C(=N)N)cc1)c1cccnc1)c1ccccc1)C(N)=O` (mixture of isomers) [Example 66, 2-(S)-{2-(S)-[3-(4-Carbamimidoyl-phenyl)-2-(R,S)-pyridin-3-yl-propionyl-amino]-2-phenyl-acetylamino}-5-guanidino-pentanoic acid amide trifluoroacetic acid salt], 8.64. In turn, `CC(Cc1ccc(C(=N)N)cc1)(C(=O)N[C@@H](COCc1ccccc1)C(=O)N[C@@H](CCCNC(=N)N)C(N)=O)c1ccccc1` (mixture of isomers) [Example 70, 2-(S)-{3-Benzyloxy-2-(S)-[3-(4-carbamimidoyl-phenyl)-2-(R,S)-methyl-2-phenyl-propionylamino]-propionylamino}-5-guanidino-pentanoic acid amide trifluoroacetic acid salt] gave a pKi of 7.52. The compound `N=C(N)NCCC[C@H](NC(=O)[C@@H](NC(=O)C(Cc1ccc(C(=N)N)cc1)c1ccc2ccccc2c1)C1CCCCC1)C(=O)O` (mixture of isomers) [Example 79, 2-(S)-{2-(S)-[3-(4-Carbamimidoyl-phenyl)-2-(R,S)-naphthalen-2-yl-propionyl-amino]-2-cyclohexyl-acetylamino}-5-guanidino-pentanoic acid trifluoroacetic acid salt] showed a pKi of 7.65. Under `N=C(N)NCCC[C@H](NC(=O)[C@H](CCC(=O)O)NC(=O)C(Cc1ccc(C(=N)N)cc1)c1ccc2ccccc2c1)C(=O)N[C@@H](CC1CCCCC1)C(N)=O` (mixture of isomers) [Example 82, 4-(S)-[3-(4-Carbamimidoyl-phenyl)-2-(R,S)-naphthalen-2-yl-propionylamino]-4-[1-(S)-(1-(S)-carbamoyl-2-cyclohexyl-ethylcarbamoyl)-4-guanidino-butylcarbamoyl]-butyric acid trifluoroacetic acid salt] stands 5.55; under `N=C(N)NCCC[C@H](NC(=O)[C@@H](NC(=O)C(Cc1ccc(C(=N)N)cc1)c1ccc2ccccc2c1)C1CCCCC1)C(N)=O` (mixture of isomers) [Example 95, 2-(S)-{2-(S)-[3-(4-Carbamimidoyl-phenyl)-2-(R,S)-naphthalen-2-yl-propionylamino]-2-cyclohexyl-acetylamino}-5-guanidino-pentanoic acid amide trifluoroacetic acid salt], 8.04.

Regarding `CC(Cc1ccc(C(=N)N)cc1)(C(=O)N[C@H](C(=O)N[C@@H](CCCNC(=N)N)C(N)=O)C1CCCCC1)c1ccccc1` (mixture of isomers) [Example 96, 2-(S)-{2-(S)-[3-(4-Carbamimidoyl-phenyl)-2-(R,S)-methyl-2-phenyl-propionylamino]-2-cyclohexyl-acetylamino}-5-guanidino-pentanoic acid amide trifluoroacetic acid salt], the pKi is 8.08. As for `CC(Cc1ccc(C(=N)N)cc1)(C(=O)N[C@@H](CC1CCCCC1)C(=O)N[C@@H](CCCNC(=N)N)C(N)=O)c1ccccc1` (mixture of isomers) [Example 100, 2-(S)-{2-(S)-[3-(4-Carbamimidoyl-phenyl)-2-(R,S)-methyl-2-phenyl-propionylamino]-3-cyclohexyl-propionylamino}-5-guanidino-pentanoic acid amide trifluoroacetic acid salt], the figure is 6.36; as for `N=C(N)NCCC[C@H](NC(=O)[C@H](Cc1ccccc1)NC(=O)C(Cc1ccc(C(=N)N)cc1)c1cccnc1)C(N)=O` (mixture of isomers) [Example 106, 2-(S)-{2-(S)-[3-(4-Carbamimidoyl-phenyl)-2-(R,S)-pyridin-3-yl-propionylamino]-3-phenyl-propionylamino}-5-guanidino-pentanoic acid amide trifluoroacetic acid salt], 7.17. As for `Cc1cccc(C(Cc2ccc(C(=N)N)cc2)C(=O)N[C@H](C(=O)N[C@@H](CCCNC(=N)N)C(N)=O)C2CCCCC2)c1` (mixture of isomers) [Example 122, 2-(S)-{2-(S)-[3-(4-Carbamimidoyl-phenyl)-2-(R,S)-m-tolyl-propionylamino]-2-cyclohexyl-acetylamino}-5-guanidino-pentanoic acid amide hydrochloric acid salt], the figure is 7.80.
